Experimental data as given in US20200399222A1, “PICOLINAMIDES AS FUNGICIDES” (Dow AgroSciences LLC, priority 2018, published 2020).
Read-outs that look alike come from different tables or passages of the source.

Columns and labels:
Format in all cases: in vivo
[1] = system: Zymoseptoria tritici; assay: Leaf blotch of wheat (SEPTTR) disease control on wheat seedlings; conditions: for pest or weed control at 121.5 g/ha: Low volume application; for pest or weed control at 100 ppm: High volume application
[2] = system: Puccinia triticina; assay: Wheat brown rust (PUCCRT) disease control on wheat seedlings; conditions: for pest or weed control at 121.5 g/ha: Low volume application; for pest or weed control at 100 ppm: High volume application
How it was run: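 Yuma wheat seedlings (first leaf emerged) sprayed to run-off with compound in acetone plus nine volumes water containing 110 ppm Triton X-100, or track-sprayed as EC formulations with 0.1% Trycol 5941. Rust spores inoculated before or after treatment; overnight dark dew, 22 °C, 100% RH, then greenhouse at 24 °C.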

[3] = system: Phakopsora pachyrhizi; assay: Asian soybean rust (PHAKPA) disease control on soybean seedlings; conditions: Phakopsora pachyrhizi, High volume application at 25 ppm
How it was run: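 Compounds in acetone diluted with nine volumes of water containing 0.011% Tween 20, sprayed to run-off on two-week-old Williams 82 soybean seedlings; inoculation 3 days before or 1 day after treatment. Plants held 24 h in dark dew room at 22° C, 100% RH, then at 23° C; disease severity scored on sprayed leaves.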

[4] = 24 h, 1 Day Protectant, read-out: SEPTTR disease control rating, 1DP
[5] = 72 h, 3 Day Curative, read-out: SEPTTR disease control rating, 3DC
[6] = 24 h, 1 Day Protectant, read-out: PUCCRT disease control rating, 1DP
[7] = 72 h, 3 Day Curative, read-out: PUCCRT disease control rating, 3DC
[8] = 24 h, 1 day protectant, read-out: PHAKPA 1DP (1 Day Protectant) disease control
[9] = 72 h, 3 day curative, read-out: PHAKPA 3DC (3 Day Curative) disease control

Structure (SMILES): COc1ccnc(C(=O)N[C@@H](C)C(=O)OC(C)C(C)c2c(C)cccc2C)c1OC(=O)C(C)C (stereo partly shown) [Example 243]
- pest or weed control at 121.5 g/ha [1, 4]: < 80%
- pest or weed control at 121.5 g/ha [1, 5]: < 80%
- pest or weed control at 121.5 g/ha [2, 6]: < 80%
- pest or weed control at 121.5 g/ha [2, 7]: < 80%
- pest or weed control at 25 ppm [3, 8]: > 80%
- pest or weed control at 25 ppm [3, 9]: > 80%

Structure (SMILES): COc1ccnc2c(=O)n([C@@H](C)C(=O)O[C@@H](C)[C@@H](C)c3ccccc3)c(=O)oc12 [Example 261]
- pest or weed control at 121.5 g/ha [1, 4]: < 80%
- pest or weed control at 121.5 g/ha [1, 5]: < 0%
- pest or weed control at 121.5 g/ha [2, 6]: < 80%
- pest or weed control at 121.5 g/ha [2, 7]: < 0%
- pest or weed control at 25 ppm [3, 8]: < 80%
- pest or weed control at 25 ppm [3, 9]: < 80%

Structure (SMILES): COc1ccnc(C(=O)N[C@@H](C)C(=O)O[C@@H](C)[C@@H](C)c2ccc(F)cc2C)c1O [Example 128]
- pest or weed control at 100 ppm [1, 4]: > 80%
- pest or weed control at 100 ppm [1, 5]: > 80%
- pest or weed control at 100 ppm [2, 6]: > 80%
- pest or weed control at 100 ppm [2, 7]: > 80%
- pest or weed control at 25 ppm [3, 9]: > 80%

Structure (SMILES): COc1ccnc(C(=O)N[C@@H](C)C(=O)O[C@H](C)[C@H](C)c2ccc(C)cc2C)c1OC(=O)C(C)C [Example 180]
- pest or weed control at 121.5 g/ha [1, 4]: < 80%
- pest or weed control at 121.5 g/ha [1, 5]: < 80%
- pest or weed control at 121.5 g/ha [2, 6]: < 80%
- pest or weed control at 121.5 g/ha [2, 7]: < 80%
- pest or weed control at 25 ppm [3, 8]: > 80%
- pest or weed control at 25 ppm [3, 9]: < 80%

Structure (SMILES): COc1ccnc(C(=O)N[C@@H](C)C(=O)O[C@@H](C)[C@@H](C)c2ccc(F)cc2C(F)(F)F)c1OC(=O)C(C)C [Example 235]
- pest or weed control at 121.5 g/ha [1, 4]: > 80%
- pest or weed control at 121.5 g/ha [1, 5]: > 80%
- pest or weed control at 121.5 g/ha [2, 6]: < 80%
- pest or weed control at 121.5 g/ha [2, 7]: < 80%
- pest or weed control at 25 ppm [3, 8]: > 80%
- pest or weed control at 25 ppm [3, 9]: > 80%

Structure (SMILES): COc1ccnc(C(=O)N[C@@H](C)C(=O)OC(C)C(C)c2c(C)cccc2C)c1OC(C)=O (stereo partly shown) [Example 255]
- pest or weed control at 121.5 g/ha [1, 4]: < 80%
- pest or weed control at 121.5 g/ha [1, 5]: > 80%
- pest or weed control at 121.5 g/ha [2, 6]: > 80%
- pest or weed control at 121.5 g/ha [2, 7]: < 80%
- pest or weed control at 25 ppm [3, 8]: > 80%
- pest or weed control at 25 ppm [3, 9]: > 80%

Structure (SMILES): COc1ccnc(C(=O)N[C@@H](C)C(=O)O[C@@H](C)[C@H](C)c2ccccc2C)c1OCOC(C)=O [Example 231]
- pest or weed control at 121.5 g/ha [1, 4]: < 80%
- pest or weed control at 121.5 g/ha [1, 5]: < 80%
- pest or weed control at 121.5 g/ha [2, 6]: > 80%
- pest or weed control at 121.5 g/ha [2, 7]: < 80%
- pest or weed control at 25 ppm [3, 8]: < 80%
- pest or weed control at 25 ppm [3, 9]: < 0%

Structure (SMILES): COc1ccnc(C(=O)N[C@@H](C)C(=O)O[C@H](C)[C@H](C)c2ccccc2C)c1OC(=O)C(C)C [Example 265]
- pest or weed control at 121.5 g/ha [1, 4]: < 80%
- pest or weed control at 121.5 g/ha [1, 5]: < 80%
- pest or weed control at 121.5 g/ha [2, 6]: < 80%
- pest or weed control at 121.5 g/ha [2, 7]: < 80%
- pest or weed control at 25 ppm [3, 8]: > 80%
- pest or weed control at 25 ppm [3, 9]: > 80%

Structure (SMILES): COc1ccnc(C(=O)N[C@@H](C)C(=O)O[C@@H](C)[C@@H](C)c2ccccc2)c1OC(C)=O [Example 258]
- pest or weed control at 100 ppm [1, 4]: < 80%
- pest or weed control at 121.5 g/ha [1, 4]: < 80%
- pest or weed control at 100 ppm [1, 5]: < 80%
- pest or weed control at 121.5 g/ha [1, 5]: > 80%
- pest or weed control at 100 ppm [2, 6]: > 80%
- pest or weed control at 121.5 g/ha [2, 6]: < 80%
- pest or weed control at 100 ppm [2, 7]: > 80%
- pest or weed control at 121.5 g/ha [2, 7]: > 80%
- pest or weed control at 25 ppm [3, 8]: > 80%
- pest or weed control at 25 ppm [3, 9]: > 80%

Structure (SMILES): COc1ccnc(C(=S)N[C@@H](C)C(=O)O[C@@H](C)[C@@H](C)c2ccccc2C(F)(F)F)c1OC(C)=O [Example 270]
- pest or weed control at 121.5 g/ha [1, 4]: < 80%
- pest or weed control at 121.5 g/ha [1, 5]: < 80%
- pest or weed control at 121.5 g/ha [2, 6]: < 80%
- pest or weed control at 121.5 g/ha [2, 7]: < 80%
- pest or weed control at 25 ppm [3, 8]: > 80%
- pest or weed control at 25 ppm [3, 9]: < 80%

Structure (SMILES): COc1ccnc(C(=O)N[C@@H](C)C(=O)O[C@@H](C)[C@@H](C)c2ccccc2C)c1OC(=O)C(C)C [Example 266]
- pest or weed control at 121.5 g/ha [1, 4]: < 80%
- pest or weed control at 121.5 g/ha [1, 5]: < 80%
- pest or weed control at 121.5 g/ha [2, 6]: < 80%
- pest or weed control at 121.5 g/ha [2, 7]: < 80%
- pest or weed control at 25 ppm [3, 8]: > 80%
- pest or weed control at 25 ppm [3, 9]: > 80%

Structure (SMILES): COc1ccnc(C(=O)N[C@@H](C)C(=O)O[C@H](C)[C@H](C)C2CCCC2)c1OC(=O)C(C)C [Example 241]
- pest or weed control at 121.5 g/ha [1, 4]: < 80%
- pest or weed control at 121.5 g/ha [1, 5]: < 0%
- pest or weed control at 121.5 g/ha [2, 6]: < 0%
- pest or weed control at 121.5 g/ha [2, 7]: < 0%
- pest or weed control at 25 ppm [3, 8]: < 0%
- pest or weed control at 25 ppm [3, 9]: < 0%

Structure (SMILES): COc1ccnc(C(=O)N[C@@H](C)C(=O)O[C@@H](C)[C@@H](C)c2ccccc2C(F)(F)F)c1OC(=O)C(C)C [Example 234]
- pest or weed control at 121.5 g/ha [1, 4]: < 80%
- pest or weed control at 121.5 g/ha [1, 5]: < 80%
- pest or weed control at 121.5 g/ha [2, 6]: < 80%
- pest or weed control at 121.5 g/ha [2, 7]: < 80%
- pest or weed control at 25 ppm [3, 8]: > 80%
- pest or weed control at 25 ppm [3, 9]: > 80%

Structure (SMILES): COc1cc[n+]([O-])c(C(=O)N[C@@H](C)C(=O)O[C@@H](C)[C@@H](C)c2ccccc2C(F)(F)F)c1O [Example 273]
- pest or weed control at 121.5 g/ha [1, 4]: < 80%
- pest or weed control at 121.5 g/ha [1, 5]: < 80%
- pest or weed control at 121.5 g/ha [2, 6]: < 80%
- pest or weed control at 121.5 g/ha [2, 7]: < 80%
- pest or weed control at 25 ppm [3, 8]: < 80%
- pest or weed control at 25 ppm [3, 9]: < 80%

Structure (SMILES): COc1ccnc(C(=O)N[C@@H](C)C(=O)O[C@@H](C)[C@@H](C)c2ccccc2C(F)(F)F)c1OC(C)=O [Example 245]
- pest or weed control at 121.5 g/ha [1, 4]: > 80%
- pest or weed control at 121.5 g/ha [1, 5]: > 80%
- pest or weed control at 121.5 g/ha [2, 6]: > 80%
- pest or weed control at 121.5 g/ha [2, 7]: < 80%
- pest or weed control at 25 ppm [3, 8]: > 80%
- pest or weed control at 25 ppm [3, 9]: > 80%

Structure (SMILES): COc1ccnc(C(=O)N[C@@H](C)C(=O)OC(C)C(C)c2c(C)cc(F)cc2C)c1OC(C)=O (stereo partly shown) [Example 256]
- pest or weed control at 121.5 g/ha [1, 4]: > 80%
- pest or weed control at 121.5 g/ha [1, 5]: > 80%
- pest or weed control at 121.5 g/ha [2, 6]: > 80%
- pest or weed control at 121.5 g/ha [2, 7]: > 80%
- pest or weed control at 25 ppm [3, 8]: > 80%
- pest or weed control at 25 ppm [3, 9]: > 80%

Structure (SMILES): COc1ccnc(C(=O)N[C@@H](C)C(=O)O[C@H](C)[C@H](C)c2ccccc2C(F)(F)F)c1OC(=O)C(C)C [Example 239]
- pest or weed control at 121.5 g/ha [1, 4]: < 80%
- pest or weed control at 121.5 g/ha [1, 5]: < 80%
- pest or weed control at 121.5 g/ha [2, 6]: < 0%
- pest or weed control at 121.5 g/ha [2, 7]: < 0%
- pest or weed control at 25 ppm [3, 8]: < 80%
- pest or weed control at 25 ppm [3, 9]: < 80%

Structure (SMILES): COc1cc[n+]([O-])c(C(=O)N[C@@H](C)C(=O)O[C@@H](C)[C@@H](C)c2ccccc2)c1O [Example 276]
- pest or weed control at 100 ppm [1, 4]: < 80%
- pest or weed control at 121.5 g/ha [1, 4]: < 80%
- pest or weed control at 100 ppm [1, 5]: < 80%
- pest or weed control at 121.5 g/ha [1, 5]: < 80%
- pest or weed control at 100 ppm [2, 6]: > 80%
- pest or weed control at 121.5 g/ha [2, 6]: < 80%
- pest or weed control at 100 ppm [2, 7]: < 80%
- pest or weed control at 121.5 g/ha [2, 7]: < 80%
- pest or weed control at 25 ppm [3, 8]: < 0%
- pest or weed control at 25 ppm [3, 9]: < 80%

Structure (SMILES): COc1ccnc(C(=O)N[C@@H](C)C(=O)O[C@@H](C)[C@@H](C)c2ccc(C)cc2C)c1OC(C)=O [Example 177]
- pest or weed control at 121.5 g/ha [1, 4]: > 80%
- pest or weed control at 121.5 g/ha [1, 5]: > 80%
- pest or weed control at 121.5 g/ha [2, 6]: > 80%
- pest or weed control at 121.5 g/ha [2, 7]: > 80%
- pest or weed control at 25 ppm [3, 8]: > 80%
- pest or weed control at 25 ppm [3, 9]: > 80%

Structure (SMILES): COc1ccc([C@@H](C)[C@@H](C)OC(=O)[C@H](C)NC(=O)c2nccc(OC)c2OCOC(C)=O)c(C)c1 [Example 233]
- pest or weed control at 121.5 g/ha [1, 4]: < 80%
- pest or weed control at 121.5 g/ha [1, 5]: < 80%
- pest or weed control at 121.5 g/ha [2, 6]: > 80%
- pest or weed control at 121.5 g/ha [2, 7]: < 80%
- pest or weed control at 25 ppm [3, 8]: > 80%
- pest or weed control at 25 ppm [3, 9]: < 80%
